Test results reported in ChEMBL document CHEMBL5724914, “Linking interpersonal differences in gut microbiota composition and drug biotransformation activity” (2024).

How the values were obtained:
[1] = (§1) The drug is tested on WLS-069 corresponding to human gut metagenome with ENA study accession number: PRJEB37062 and ENA sample accession number: ERS12561748 for biotransformation under anaerobic condition. The drug concentrations were measured over 9 timepoints collected between 0 and 24 hours of incubation by liquid-chromatography-coupled mass spectrometry (LC–MS); conditions: 2 µM
[2] = as §1, with “WLS-039” for “WLS-069”, “ERS12561746” for “ERS12561748”; conditions: 2 µM
[3] = human gut metagenome, 24 h, 2 µM
[4] = human gut metagenome, 24 h, 2 µM; remark: listed apart in the source
[5] = human gut metagenome, 24 h, 2 µM; remark: listed apart in the source
[6] = human gut metagenome, 24 h, 2 µM; remark: listed apart in the source
[7] = human gut metagenome, 24 h, 2 µM; remark: listed apart in the source
[8] = as §1, with “Z-019” for “WLS-069”, “rat” for “human”, “ERS12561818” for “ERS12561748”; conditions: 2 µM
[9] = human gut metagenome, 24 h, 2 µM; remark: listed apart in the source
[10] = as §1, with “Z-029” for “WLS-069”, “rat” for “human”, “ERS12561828” for “ERS12561748”; conditions: 2 µM
[11] = human gut metagenome, 24 h, 2 µM; remark: listed apart in the source
[12] = human gut metagenome, 24 h, 2 µM; remark: listed apart in the source
[13] = human gut metagenome, 24 h, 2 µM; remark: listed apart in the source
[14] = human gut metagenome, 24 h, 2 µM; remark: listed apart in the source
[15] = as §1, with “Z-012” for “WLS-069”, “to” for “to human gut”, “ERS12561812” for “ERS12561748”; conditions: 2 µM
[16] = as §1, with “WLS-090” for “WLS-069”, “ERS12561753” for “ERS12561748”; conditions: 2 µM
[17] = as §1, with “Z-030” for “WLS-069”, “mouse” for “human”, “ERS12561829” for “ERS12561748”; conditions: 2 µM
[18] = as §1, with “WLS-310” for “WLS-069”, “ERS12561785” for “ERS12561748”; conditions: 2 µM
[19] = human gut metagenome, 24 h, 2 µM; remark: listed apart in the source
[20] = human gut metagenome, 24 h, 2 µM; remark: listed apart in the source
Note: call rule not given here.

Structure (SMILES) | Bacterial Biotransformation [1] | Bacterial Biotransformation [2] | Bacterial Biotransformation [3] | Bacterial Biotransformation [4] | Bacterial Biotransformation [5] | Bacterial Biotransformation [6] | Bacterial Biotransformation [7] | Bacterial Biotransformation [8] | Bacterial Biotransformation [9] | Bacterial Biotransformation [10] | Bacterial Biotransformation [11] | Bacterial Biotransformation [12] | Bacterial Biotransformation [13] | Bacterial Biotransformation [14] | Bacterial Biotransformation [15] | Bacterial Biotransformation [16] | Bacterial Biotransformation [17] | Bacterial Biotransformation [18] | Bacterial Biotransformation [19] | Bacterial Biotransformation [20]
CC(C)(C)NC[C@H](O)COc1nsnc1N1CCOCC1.O=C(O)/C=C\C(=O)O [TIMOLOL MALEATE] | Compound NOT metabolized | Compound NOT metabolized | Compound NOT metabolized | Compound NOT metabolized | Compound NOT metabolized | Compound NOT metabolized | Compound NOT metabolized | Compound NOT metabolized | Compound NOT metabolized | Compound NOT metabolized | Compound NOT metabolized | Compound NOT metabolized | Compound NOT metabolized | Compound NOT metabolized | Compound NOT metabolized | Compound NOT metabolized | Compound NOT metabolized | Compound NOT metabolized | Compound NOT metabolized | Compound NOT metabolized
CC[C@@]1(O)C(=O)OCc2c1cc1n(c2=O)Cc2cc3c(CN(C)C)c(O)ccc3nc2-1 [TOPOTECAN] | Compound NOT metabolized | Compound NOT metabolized | Compound NOT metabolized | Compound NOT metabolized | Compound NOT metabolized | Compound NOT metabolized | Compound NOT metabolized | Compound NOT metabolized | Compound NOT metabolized | Compound NOT metabolized | Compound NOT metabolized | Compound NOT metabolized | Compound NOT metabolized | Compound NOT metabolized | Compound NOT metabolized | Compound NOT metabolized | Compound NOT metabolized | Compound NOT metabolized | Compound NOT metabolized | Compound NOT metabolized
COc1cc(C(=O)NCc2ccc(OCCN(C)C)cc2)cc(OC)c1OC [TRIMETHOBENZAMIDE] | Compound NOT metabolized | Compound NOT metabolized | Compound NOT metabolized | Compound NOT metabolized | Compound NOT metabolized | Compound NOT metabolized | Compound NOT metabolized | Compound NOT metabolized | Compound NOT metabolized | Compound NOT metabolized | Compound NOT metabolized | Compound NOT metabolized | Compound NOT metabolized | Compound NOT metabolized | Compound NOT metabolized | Compound NOT metabolized | Compound NOT metabolized | Compound NOT metabolized | Compound NOT metabolized | Compound NOT metabolized
COc1ccc(C(CN(C)C)C2(O)CCCCC2)cc1 (stereo not given) [VENLAFAXINE] | Compound NOT metabolized | Compound NOT metabolized | Compound NOT metabolized | Compound NOT metabolized | Compound metabolized | Compound NOT metabolized | Compound NOT metabolized | Compound NOT metabolized | Compound metabolized | Compound NOT metabolized | Compound NOT metabolized | Compound NOT metabolized | Compound NOT metabolized | Compound NOT metabolized | Compound NOT metabolized | Compound NOT metabolized | Compound NOT metabolized | Compound metabolized | Compound NOT metabolized | Compound NOT metabolized
CCOC(=O)C1=C[C@]2(CC)CCCN3CCc4c(n1c1ccccc41)[C@@H]32 [VINPOCETINE] | Compound metabolized | Compound NOT metabolized | Compound NOT metabolized | Compound NOT metabolized | Compound metabolized | Compound metabolized | Compound metabolized | Compound NOT metabolized | Compound metabolized | Compound NOT metabolized | Compound metabolized | Compound NOT metabolized | Compound metabolized | Compound metabolized | Compound NOT metabolized | Compound metabolized | Compound NOT metabolized | Compound metabolized | Compound NOT metabolized | Compound NOT metabolized
C[C@@H](c1ncncc1F)[C@](O)(Cn1cncn1)c1ccc(F)cc1F [VORICONAZOLE] | Compound metabolized | Compound metabolized | Compound metabolized | Compound metabolized | Compound metabolized | Compound metabolized | Compound metabolized | Compound NOT metabolized | Compound metabolized | Compound metabolized | Compound metabolized | Compound metabolized | Compound metabolized | Compound metabolized | Compound metabolized | Compound metabolized | Compound NOT metabolized | Compound metabolized | Compound metabolized | Compound metabolized
CCN(C(C)=O)c1cccc(-c2ccnc3c(C#N)cnn23)c1 [ZALEPLON] | Compound metabolized | Compound metabolized | Compound metabolized | Compound NOT metabolized | Compound metabolized | Compound metabolized | Compound metabolized | Compound NOT metabolized | Compound metabolized | Compound NOT metabolized | Compound metabolized | Compound NOT metabolized | Compound metabolized | Compound metabolized | Compound metabolized | Compound metabolized | Compound NOT metabolized | Compound metabolized | Compound metabolized | Compound NOT metabolized
